“And” between values parts separate entries of the source, which are not always exact repeats. Equal entries are not always repeated.
What was measured:
EV71 [1] = experiment: Inhibition of EV71 in RD cells (viral RNA, qRT-PCR); assay type: cell-based, enterovirus 71 (EV71); settings: EV71, 24 h after infection
Experimental: (§1) (1) Different cells were plated in a 24-well plate.
(§2) (2) When the cells grew to a confluence of 70%-80%, the DMEM medium containing 10% serum was replaced with a DMEM medium containing 2% serum (the DMEM medium containing 2% serum was added in each well at an amount of 0.5 mL), and 5 μL of EV71 virus of 1×10^6 PFU/mL was added to each well.
(§3) (3) After 1 h, different polypeptides (RQ or control TAT) with final concentrations of 0.3125 μM, 0.625 μM, 1.25 μM, 2.5 μM, and 5 μM were added respectively. The group without polypeptide added was used as a control.
(§4) (4) The samples were collected 24 h after the infection of EV71 virus, and RNA was extracted with the total RNA extraction kit.
(§5) (5) The supernatant was discarded, then 350 μL of TRK lysate was added to each well, and the plate was put on a shaker for 5 min.
(§6) (6) 350 μL of 70% ethanol (DEPC) was added to each well, and then the plate was put on a shaker for 5 min.
(§7) (7) The solution in each well was transferred to a RNA extraction column for 1 min of centrifugation at 12000 g.
(§8) (8) The solution obtained in the recovery tube was reloaded on the column again for 1 min of centrifugation at 12000 g.
(§9) (9) RNA washing buffer 1 was added in the column for 30 s of centrifugation at 12000 g.
(§10) (10) RNA washing buffer 2 was added in the column for 1 min of centrifugation at 12000 g.
(§11) (11) Step (10) was repeated.
(§12) (12) The column alone was centrifuged at 12000 g for 2 min to completely remove the residual RNA washing buffer.
(§13) (13) 50 μL of DEPC water was added to the column for 2 min of centrifugation at 12000 g.
(§14) (14) 2 μL of RNA sample was subjected to a fluorescence quantitative experiment using the one step qRT-PCR kit.
(3) After 1 h, different polypeptides (RQ or control TAT) with final concentrations of 0.3125 μM, 0.625 μM, 1.25 μM, 2.5 μM and 5 μM were added respectively. The group without polypeptide added was used as a control.

Vero cells = experiment: Cytotoxicity of polypeptides in Vero cells (CCK-8); assay type: cell-based; settings: Vero cells, 24 h
Experimental: (§15) Therefore, this standard was testified by cytotoxicity assay, and the cells without any treatment were used as a control group.
(§16) (1) Vero cells were plated in a 96-well plate at 100 μL per well.
(§17) (2) When the cells grew to a confluence of 70%-80%, the DMEM medium containing 10% serum was replaced with a DMEM medium containing 2% serum, and a certain concentration gradient of polypeptide RQ or LQ or SQ was added, so that the final concentrations of the polypeptide in the wells were 0.073242 μM, 0.146484 μM, 0.292969 μM, 0.585938 μM, 1.171875 μM, 2.34375 μM, 4.6875 μM, 9.375 μM, 18.75 μM, 37.5 μM, 75 μM and 150 μM, respectively.
(§18) (3) The samples were collected 24 h after the addition of the polypeptide, and then 10 μL of live cell detection reagent CCK-8 was added to each well and mixed well.
(§19) (4) The plate was placed at 37° C. for 2 h.
(§20) (5) The absorbance value at OD450 was detected by a microplate reader.
(§21) The CC50 of each polypeptide was calculated taking the cell viability of untreated cells as 100%.

[2] = Cytotoxicity of polypeptides in Vero cells (CCK-8); assay type: cell-based; settings: for CC50 at 24 h: African green monkey, Table 1 (Vero cells); for viability at 24 h, 0.073242 µM: polypeptide 0.073242 μM; for viability at 24 h, 0.146484 µM: polypeptide 0.146484 μM; for viability at 24 h, 0.292969 µM: polypeptide 0.292969 μM; for viability at 24 h, 0.585938 µM: polypeptide 0.585938 μM; for viability at 24 h, 1.17188 µM: polypeptide 1.171875 μM; for viability at 24 h, 2.34375 µM: polypeptide 2.34375 μM; for viability at 24 h, 4.6875 µM: polypeptide 4.6875 μM; for viability at 24 h, 9.375 µM: polypeptide 9.375 μM; for viability at 24 h, 18.75 µM: polypeptide 18.75 μM; for viability at 24 h, 150 µM: polypeptide 150 μM
Experimental: as §15, §16, §17, §18, §19, §20, §21

EV71 [3] = experiment: Inhibition of EV71 in Vero cells (viral RNA, qRT-PCR); assay type: cell-based, enterovirus 71 (EV71); settings: anti-EV71 in Vero cells
Experimental: as §1, §2, §3, §4, §5, §6, §7, §8, §9, §10, §11, §12, §13, §14
(1) Vero E6 cells were plated in a 24-well plate.
(3) After 1 h, different polypeptides (LQ or SQ) with final concentrations of 0.3125 μM, 0.625 μM, 1.25 μM, 2.5 μM, and 5 μM were added respectively. The group without polypeptide added was used as a control.

[4] = Vero cells, 24 h, read-out: Cell viability (%)

AC-qflaeitngiasrnnyergsgrrrqrrkkrgy-NH2 [RQ-DRI]
Percentage of viral RNA in RD cells (%) (EV71 [1]; polypeptide 0.3125 μM): 90.2% and 150.7832% and 85.04%
Percentage of viral RNA in RD cells (%) (EV71 [1]; polypeptide 0.625 μM): 113.2834% and 92.13% and 108.0728%
Percentage of viral RNA in RD cells (%) (EV71 [1]; polypeptide 1.25 μM): 93.12% and 79.48% and 58.29%
Percentage of viral RNA in RD cells (%) (EV71 [1]; polypeptide 2.5 μM): 24.4% and 38.77% and 23.45%
Percentage of viral RNA in RD cells (%) (EV71 [1]; polypeptide 5 μM): 21.2764% and 19.04% and 17.19%

MBP-CVA16 2C protein
helicase activity (unwinding of HEX-labeled dsRNA substrate, gel electrophoresis) (polypeptide RQ): RQ inhibited the helicase activity of CVA16 2C in a dose-dependent manner

CC[C@H](C)[C@H](NC(=O)[C@H](C)NC(=O)[C@H](CO)NC(=O)[C@H](CCCNC(=N)N)NC(=O)[C@H](CC(N)=O)NC(=O)[C@H](CC(N)=O)NC(=O)[C@H](Cc1ccc(O)cc1)NC(=O)[C@H](CCC(=O)O)NC(=O)[C@H](CCCNC(=N)N)NC(=O)[C@@H](NC(=O)[C@H](CC(C)C)NC(=O)[C@H](CCC(=O)O)NC(=O)[C@H](CO)NC(=O)CNC(=O)[C@H](CO)NC(=O)CNC(=O)[C@H](CCCNC(=N)N)NC(=O)[C@H](CCCNC(=N)N)NC(=O)[C@H](CCCNC(=N)N)NC(=O)[C@H](CCC(N)=O)NC(=O)[C@H](CCCNC(=N)N)NC(=O)[C@H](CCCNC(=N)N)NC(=O)[C@H](CCCCN)NC(=O)[C@H](CCCCN)NC(=O)[C@H](CCCNC(=N)N)NC(=O)CNC(=O)[C@@H](N)Cc1ccc(O)cc1)[C@@H](C)CC)C(=O)NCC(=O)N[C@@H](CC(N)=O)C(=O)N[C@H](C(=O)N[C@H](C(=O)N[C@@H](CCC(=O)O)C(=O)N[C@@H](C)C(=O)N[C@@H](CC(C)C)C(=O)N[C@@H](Cc1ccccc1)C(=O)N[C@@H](CCC(N)=O)C(=O)O)[C@@H](C)CC)[C@@H](C)O [SQ]
Cell viability (%) (Vero cells; polypeptide 0.073242 μM): 103.4468% and 96.07%
Cell viability (%) (Vero cells; polypeptide 0.146484 μM): 94.606% and 92.7401%
Cell viability (%) (Vero cells; polypeptide 0.292969 μM): 103.1624% and 100.4524%
Cell viability (%) (Vero cells; polypeptide 0.585938 μM): 103.9959% and 100.6225%
Cell viability (%) (Vero cells; polypeptide 1.171875 μM): 94.07% and 98.81%
Cell viability (%) (Vero cells; polypeptide 2.34375 μM): 101.1325% and 99.03%
Cell viability (%) (Vero cells; polypeptide 4.6875 μM): 106.7734% and 95.3706%
Cell viability (%) (Vero cells; polypeptide 9.375 μM): 102.9859% and 103.7701%
Cell viability (%) (Vero cells; polypeptide 18.75 μM): 100.481% and 90.25%
Cell viability (%) (Vero cells; polypeptide 37.5 μM): 100.7644% and 90.65% and 80.6%
Cell viability (%) (Vero cells; polypeptide 75 μM): 90.36% and 95.75% and 70.31%
Cell viability (%) (Vero cells; polypeptide 150 μM): 80.35% and 60.9948%
CC50 at 24 h [2]: 134 µM
viability at 24 h, 0.073242 µM [2, 4]: 104%
viability at 24 h, 0.146484 µM [2, 4]: 98%
viability at 24 h, 0.292969 µM [2, 4]: 101%
viability at 24 h, 0.585938 µM [2, 4]: 94.4%
viability at 24 h, 1.17188 µM [2, 4]: 90.1%
viability at 24 h, 2.34375 µM [2, 4]: 96.6%
viability at 24 h, 4.6875 µM [2, 4]: 105%
viability at 24 h, 9.375 µM [2, 4]: 99.5%
viability at 24 h, 18.75 µM [2, 4]: 106%
viability at 24 h, 150 µM [2, 4]: 70%
IC50 (EV71 [3]): 10.3 µM

CC[C@H](C)[C@H](NC(=O)[C@H](C)NC(=O)[C@H](CO)NC(=O)[C@H](CCCNC(=N)N)NC(=O)[C@H](CC(N)=O)NC(=O)[C@H](CC(N)=O)NC(=O)[C@H](Cc1ccc(O)cc1)NC(=O)[C@H](CCC(=O)O)NC(=O)[C@H](CCCNC(=N)N)NC(=O)[C@@H](NC(=O)[C@H](CC(C)C)NC(=O)CNC(=O)[C@H](CO)NC(=O)CNC(=O)[C@H](CCCNC(=N)N)NC(=O)[C@H](CCCNC(=N)N)NC(=O)[C@H](CCCNC(=N)N)NC(=O)[C@H](CCC(N)=O)NC(=O)[C@H](CCCNC(=N)N)NC(=O)[C@H](CCCNC(=N)N)NC(=O)[C@H](CCCCN)NC(=O)[C@H](CCCCN)NC(=O)[C@H](CCCNC(=N)N)NC(=O)CNC(=O)[C@@H](N)Cc1ccc(O)cc1)[C@@H](C)CC)C(=O)NCC(=O)N[C@@H](CC(N)=O)C(=O)N[C@H](C(=O)N[C@H](C(=O)N[C@@H](CCC(=O)O)C(=O)N[C@@H](C)C(=O)N[C@@H](CC(C)C)C(=O)N[C@@H](Cc1ccccc1)C(=O)N[C@@H](CCC(N)=O)C(=O)O)[C@@H](C)CC)[C@@H](C)O [LQ]
Cell viability (%) (Vero cells; polypeptide 0.073242 μM): 105.9% and 97.02%
Cell viability (%) (Vero cells; polypeptide 0.146484 μM): 104.7744% and 101.9913%
Cell viability (%) (Vero cells; polypeptide 0.292969 μM): 106.5265% and 104.7619%
Cell viability (%) (Vero cells; polypeptide 0.585938 μM): 110.5563% and 108.0087%
Cell viability (%) (Vero cells; polypeptide 1.171875 μM): 115.1555% and 110.4762%
Cell viability (%) (Vero cells; polypeptide 2.34375 μM): 106.3075% and 107.1861%
Cell viability (%) (Vero cells; polypeptide 4.6875 μM): 104.8489% and 112.5108%
Cell viability (%) (Vero cells; polypeptide 9.375 μM): 119.5795% and 113.5931%
Cell viability (%) (Vero cells; polypeptide 18.75 μM): 115.6373% and 110.3247%
Cell viability (%) (Vero cells; polypeptide 37.5 μM): 99.1853% and 97.1429%
Cell viability (%) (Vero cells; polypeptide 75 μM): 108.2318% and 87.6084% and 90.8658%
Cell viability (%) (Vero cells; polypeptide 150 μM): 83.0968% and 80.9091%
CC50 at 24 h [2]: > 150 µM
viability at 24 h, 0.073242 µM [2, 4]: 100%
viability at 24 h, 0.146484 µM [2, 4]: 103%
viability at 24 h, 0.292969 µM [2, 4]: 112%
viability at 24 h, 0.585938 µM [2, 4]: 110%
viability at 24 h, 1.17188 µM [2, 4]: 111%
viability at 24 h, 2.34375 µM [2, 4]: 105%
viability at 24 h, 4.6875 µM [2, 4]: 111%
viability at 24 h, 9.375 µM [2, 4]: 114%
viability at 24 h, 18.75 µM [2, 4]: 109%
viability at 24 h, 37.5 µM ([2]; Vero cells, polypeptide 37.5 μM, 24 h, read-out: Cell viability (%)): 117%
viability at 24 h, 150 µM [2, 4]: 72.2%
IC50 (EV71 [3]): 2.26 µM

— patent US20250263436A1, “BROAD-SPECTRUM ANTIVIRAL DRUG FOR ENTEROVIRUS, AND APPLICATION” (WUHAN INSTITUTE OF VIROLOGY, CHINESE ACADEMY OF SCIENCES, priority 2020, published 2025)
